From ChEMBL document CHEMBL1201862, “PubChem BioAssay data set” (2004)
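Step 1: Grow cells in 96-well plates. Step 2: Expose to compound for 48 hours at 5 concentrations. Step 3: Interpolate endpoints linearly; if unreached, use highest concentration. GI50 is the concentration that inhibits growth by half.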 Activity calls are given as the source filed them. No stated cut-off is given here; in the data, active = GI50 up to about 1.1 µM and inactive = higher.

What was measured:
Experiment in all cases: NCI-60 cell line screen, 48 h
[1] = tested on: 786-0
[2] = tested on: A549
[3] = tested on: ACHN
[4] = tested on: BT-549
[5] = tested on: CAKI-1
[6] = tested on: COLO 205
[7] = tested on: DU-145
[8] = tested on: EKVX
[9] = tested on: HCC 2998
[10] = tested on: HCT-116
[11] = tested on: HCT-15
[12] = tested on: HL-60
[13] = tested on: HOP-62
[14] = tested on: HOP-92
[15] = tested on: HT-29
[16] = tested on: Hs-578T
[17] = tested on: IGROV-1
[18] = tested on: K562
[19] = tested on: KM12
[20] = tested on: LOX IMVI
[21] = tested on: M14
[22] = tested on: MCF7
[23] = tested on: MDA-MB-231
[24] = tested on: MDA-MB-435
[25] = tested on: MDA-N
[26] = tested on: MOLT-4
[27] = tested on: Malme-3M
[28] = tested on: NCI-H226
[29] = tested on: NCI-H23
[30] = tested on: NCI-H460
[31] = tested on: NCI-H522
[32] = tested on: NCI/ADR-RES
[33] = tested on: OVCAR-3
[34] = tested on: OVCAR-4
[35] = tested on: OVCAR-5
[36] = tested on: OVCAR-8
[37] = tested on: PC-3
[38] = tested on: RPMI-8226
[39] = tested on: RXF 393
[40] = tested on: SF-268
[41] = tested on: SF-295
[42] = tested on: SF-539
[43] = tested on: SK-MEL-28
[44] = tested on: SK-MEL-2
[45] = tested on: SK-MEL-5
[46] = tested on: SK-OV-3
[47] = tested on: SN12C
[48] = tested on: SNB-19
[49] = tested on: SNB-75
[50] = tested on: SR
[51] = tested on: SW-620
[52] = tested on: T47D
[53] = tested on: TK-10
[54] = tested on: U-251
[55] = tested on: UACC-257
[56] = tested on: UACC-62
[57] = tested on: UO-31

O=C(Nc1ccccc1)c1cc(S(=O)(=O)NC2=Nc3ccc(Cl)cc3C(c3ccccc3)N2)c(SSc2cc(Cl)c(C(=O)Nc3ccccc3)cc2S(=O)(=O)NC2=Nc3ccc(Cl)cc3C(c3ccccc3)N2)cc1Cl (centres undefined)
GI50 [1]: > 100 µM (inactive)
GI50 [2]: > 100 µM (inactive)
GI50 [3]: > 100 µM (inactive)
GI50 [4]: > 100 µM (inactive)
GI50 [5]: > 100 µM (inactive)
GI50 [6]: > 100 µM (inactive)
GI50 [7]: > 100 µM (inactive)
GI50 [8]: > 100 µM (inactive)
GI50 [9]: > 100 µM (inactive)
GI50 [10]: > 100 µM (inactive)
GI50 [11]: > 100 µM
GI50 [12]: > 36.1 µM (inactive)
GI50 [13]: > 80.5 µM (inactive)
GI50 [14]: > 100 µM (inactive)
GI50 [15]: > 100 µM (inactive)
GI50 [16]: > 100 µM (inactive)
GI50 [17]: > 100 µM (inactive)
GI50 [18]: 38 µM (inactive)
GI50 [19]: > 100 µM (inactive)
GI50 [20]: > 100 µM (inactive)
GI50 [21]: > 57.4 µM (inactive)
GI50 [22]: > 100 µM (inactive)
GI50 [23]: > 45.3 µM (inactive)
GI50 [24]: > 100 µM (inactive)
GI50 [25]: > 100 µM (inactive)
GI50 [26]: 28.4 µM (inactive)
GI50 [27]: > 100 µM (inactive)
GI50 [28]: > 100 µM (inactive)
GI50 [29]: > 100 µM (inactive)
GI50 [30]: > 100 µM (inactive)
GI50 [31]: > 100 µM (inactive)
GI50 [32]: > 100 µM (inactive)
GI50 [33]: > 100 µM (inactive)
GI50 [34]: > 100 µM (inactive)
GI50 [35]: > 61.5 µM (inactive)
GI50 [36]: > 100 µM (inactive)
GI50 [37]: > 100 µM (inactive)
GI50 [38]: 55.3 µM (inactive)
GI50 [39]: > 100 µM (inactive)
GI50 [40]: > 100 µM (inactive)
GI50 [41]: > 100 µM (inactive)
GI50 [42]: > 100 µM (inactive)
GI50 [43]: > 100 µM (inactive)
GI50 [44]: > 100 µM (inactive)
GI50 [45]: > 100 µM (inactive)
GI50 [46]: > 100 µM (inactive)
GI50 [47]: > 100 µM (inactive)
GI50 [48]: > 100 µM (inactive)
GI50 [49]: > 100 µM (inactive)
GI50 [50]: 13.6 µM (inactive)
GI50 [51]: > 100 µM (inactive)
GI50 [52]: > 100 µM (inactive)
GI50 [53]: > 100 µM (inactive)
GI50 [54]: > 100 µM (inactive)
GI50 [55]: > 100 µM (inactive)
GI50 [56]: > 89.9 µM (inactive)
GI50 [57]: > 100 µM (inactive)

CCOC(=O)Nn1c(CC#N)nnc1Cc1ccccc1
GI50 [1]: > 100 µM (inactive)
GI50 [2]: > 100 µM (inactive)
GI50 [3]: > 100 µM (inactive)
GI50 [4]: > 100 µM (inactive)
GI50 [5]: > 100 µM (inactive)
GI50 [7]: > 100 µM (inactive)
GI50 [9]: > 100 µM (inactive)
GI50 [10]: > 100 µM (inactive)
GI50 [11]: > 100 µM
GI50 [12]: > 100 µM (inactive)
GI50 [13]: > 100 µM (inactive)
GI50 [14]: > 100 µM (inactive)
GI50 [15]: > 100 µM (inactive)
GI50 [16]: > 100 µM (inactive)
GI50 [17]: > 100 µM (inactive)
GI50 [18]: > 100 µM (inactive)
GI50 [19]: > 100 µM (inactive)
GI50 [21]: > 100 µM (inactive)
GI50 [22]: > 100 µM (inactive)
GI50 [23]: > 100 µM (inactive)
GI50 [24]: > 100 µM (inactive)
GI50 [25]: > 100 µM (inactive)
GI50 [26]: > 100 µM (inactive)
GI50 [27]: > 100 µM (inactive)
GI50 [28]: > 100 µM (inactive)
GI50 [29]: > 100 µM (inactive)
GI50 [30]: > 100 µM (inactive)
GI50 [31]: > 100 µM (inactive)
GI50 [32]: > 100 µM (inactive)
GI50 [33]: > 100 µM (inactive)
GI50 [35]: > 100 µM (inactive)
GI50 [36]: > 100 µM (inactive)
GI50 [37]: > 100 µM (inactive)
GI50 [38]: > 100 µM (inactive)
GI50 [39]: > 100 µM (inactive)
GI50 [40]: > 100 µM (inactive)
GI50 [41]: > 100 µM (inactive)
GI50 [42]: > 100 µM (inactive)
GI50 [43]: > 100 µM (inactive)
GI50 [44]: > 100 µM (inactive)
GI50 [45]: > 100 µM (inactive)
GI50 [47]: > 100 µM (inactive)
GI50 [48]: > 100 µM (inactive)
GI50 [49]: > 100 µM (inactive)
GI50 [50]: > 100 µM (inactive)
GI50 [51]: > 100 µM (inactive)
GI50 [52]: 84.9 µM (inactive)
GI50 [53]: > 100 µM (inactive)
GI50 [54]: > 100 µM (inactive)
GI50 [55]: > 100 µM (inactive)
GI50 [56]: > 100 µM (inactive)
GI50 [57]: > 100 µM (inactive)
